Data set [1] can be described thus: Assay of drug transport in Caco-2 cells. The following applies: human, Caco-2, pH 7.4. The protocol:
1) 50 μL and 25 mL of cell culture medium were added to each well of the Transwell insert and reservoir, respectively. And then the HTS transwell plates were incubated at 37° C., 5% CO2 for 1 hour before cell seeding.
2) Caco-2 cells were diluted to 6. 86×10^5 cells/mL with culture medium and 50 μL of cell suspension were dispensed into the filter well of the 96-well HTS Transwell plate. Cells were cultivated for 14-18 days in a cell culture incubator at 37° C., 5% CO2, 95% relative humidity. Cell culture medium was replaced every other day, beginning no later than 24 hours after initial plating.
10 mM stock solutions of test compounds were prepared in DMSO. The stock solutions of positive controls were prepared in DMSO at the concentration of 10 mM. Digoxin and propranolol were used as control compounds in this assay.
1) Medium was removed from the reservoir and each Transwell insert and replaced with prewarmed fresh culture medium.
2) Transepithelial electrical resistance (TEER) across the monolayer was measured using Millicell Epithelial Volt-Ohm measuring system (Millipore, USA).
The TEER value was calculated according to the following equation: TEER measurement (ohms) * Area of membrane (cm^2)=TEER value (ohm·cm^2) TEER value should be greater than 230 ohm·cm^2, which indicates the well-qualified Caco-2 monolayer.
1) The Caco-2 plate was removed from the incubator and washed twice with pre-warmed HMS (10 mM HEPES, pH 7.4), and then incubated at 37° C. for 30 minutes.
2) The stock solutions of control compounds and test compounds were diluted in DMSO to get 1 mM solutions and then diluted with HMS (10 mM HEPES, pH 7.4) get 5 μM working solutions. The final concentration of DMSO in the incubation system was 0.5%.
3) To determine the rate of drug transport in the apical to basolateral direction. 125 μL of 5 μM working solution of control compound and test compounds were added to the Transwell insert (apical compartment), and transfer 50 μL sample (D0 sample) immediately from the apical compartment to a new 96-well plate. Fill the wells in the receiver plate (basolateral compartment) with 235 μL of MSS (10 mM HEPES, pH 7.4).
4) To determine the rate of drug transport in the basolateral to apical direction. 285 μL of 5 μM working solution of control compound and test compounds were to the receiver plate wells (basolateral compartment), and transfer 50 μL sample (D0 sample) immediately from the basolateral compartment to a new 96-well plate. Fill the wells in the Transwell insert (apical compartment) with 75 μL of MSS (10 mM HEPES, pH 7.4). The assay was performed in duplicate.
5) The plates were incubated at 37° C. for 2 hours.
6) At the end of the incubation, 50 μL samples from donor sides (apical compartment for Ap→Bl flux, and basolateral compartment for Bl→Ap) and receiver sides (basolateral compartment for Ap→Bl flux, and apical compartment for Bl→Ap) were transferred to wells of a new 96-well plate, followed by the addition of 4 volume of cold methanol containing appropriate internal standards (IS). Samples were Vortexed for 5 minutes and then centrifuged at 3,220 g for 40 minutes. An aliquot of 100 μL of the supernatant was mixed with an appropriate volume of ultra-pure water before LC-MS/MS analysis.
7) To determine the Lucifer Yellow leakage after 2-hour transport period, stock solution of Lucifer yellow was prepared in water and diluted with HMS (10 mM HEPES, pH 7.4) to reach the final concentration of 100 μM. 100 μL of the Lucifer yellow solution was added to each Transwell insert (apical compartment), followed by filling the wells in the receiver plate (basolateral compartment) with 300 μL of HBSS (10 mM HEPES, pH 7.4). The plates were Incubated at 37° C. for 30 mins. 80 μL samples were removed directly from the apical and basolateral wells (using the basolateral access holes) and transferred to wells of new 96 wells plates.
A general note: Caco-2 cells form a polarised layer with tight junctions and transporters.

The next data set addresses wild type CK1δ (Homo sapiens, UniProt P48730). Kind of data set: CK1δ kinase assay (Kinase-Glo). In kind it is biochemical. The following applies: 10 μM ATP, 2 nM wild type CK1δ, 85 min at 25° C.; read-out: CK1δ inhibition (IC50). The protocol: The CK1δ kinase assay was performed with a buffer (40 μL, pH 7.5) containing 50 mM Tris, 10 mM MgCl2, 1 mM dithiothreitol, 100 μg/mL BSA with 10 μM ATP, 2 nM wild type CK1δ, and 42 μM peptide substrate PLSRTLpSVASLPGL (Flotow et al., 1990) in the presence of 1 μL of a CK1δ inhibitor (e.g., a compound of the present application) or 4% DMSO (e.g., as control). The reaction mixture was incubated for 85 min at 25° C.; detection was carried out as described for the Kinase-Glo Assay (Promega). Luminescent output was measured on the Perkin Elmer Envision plate reader (PerkinElmer, Waltham, Mass.).

The subject of data set [2] is MDA-MB-231 cells (breast cancer cells). Kind of data set: Transwell cell migration assay. The class given is cell-based. The following applies: MDA-MB-231, 24 h; for relative migration (%) of cells: FIG. 61; for migrated cells: FIGS. 62-67. The protocol: MDA-MB-231 cells (breast cancer cells) were starved in 0.5% serum-DMEM for 8 hours. For the migration assay, a total of 5×10^4cells were suspended in 500 μL of serum-free DMEM medium and seeded into the upper chamber of a […] pore size insert. Then, 750 μL of DMEM (containing 10% FBS) with or without the compound of the present application was added to the lower compartment. After incubation at 37° C. for 24 h, migrated cells were washed with PBS, fixed in 4% PFA and stained for 30 min in crystal violet solution (0.1% crystal violet). […] Each insert was photographed in 3 random fields at a magnification of 40×.

For orientation: efflux ratio means a quotient of directional permeabilities that is used to spot active efflux. A word on the IC50: it is the midpoint of a concentration-inhibition curve. One may read the Papp A→B as how fast a substance crosses the layer from the apical side. Read a low Papp A→B as poor permeation. As usually defined, the Papp B→A is the apparent permeability from the basolateral to the apical side of a cell layer.

Chain of wild type CK1δ (P48730 whole entry): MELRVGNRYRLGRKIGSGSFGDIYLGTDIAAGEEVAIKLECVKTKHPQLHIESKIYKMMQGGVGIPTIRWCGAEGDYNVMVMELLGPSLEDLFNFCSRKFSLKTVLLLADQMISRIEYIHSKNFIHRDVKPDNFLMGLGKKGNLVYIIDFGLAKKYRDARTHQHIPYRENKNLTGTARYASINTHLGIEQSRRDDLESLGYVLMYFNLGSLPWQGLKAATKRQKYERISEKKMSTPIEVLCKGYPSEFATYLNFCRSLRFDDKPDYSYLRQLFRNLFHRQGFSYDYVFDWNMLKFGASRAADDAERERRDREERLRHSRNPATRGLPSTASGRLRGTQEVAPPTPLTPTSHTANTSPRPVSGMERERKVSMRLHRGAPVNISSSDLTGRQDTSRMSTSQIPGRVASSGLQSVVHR

Take `C[C@H]1O[C@@H](O[C@H]2[C@@H](O)C[C@H](O[C@H]3[C@@H](O)C[C@H](O[C@H]4CC[C@@]5(C)[C@H](CC[C@@H]6[C@@H]5C[C@@H](O)[C@]5(C)[C@@H](C7=CC(=O)OC7)CC[C@]65O)C4)O[C@@H]3C)O[C@@H]2C)C[C@H](O)[C@@H]1O` [Digoxin, reference compound]: in data set [1], the efflux ratio at 2 h, 5 μM was determined as 56.5. Still for that read-out and setting: the same measure for `CC(C)NCC(O)COc1cccc2ccccc12` (stereo not drawn) [Propranolol, reference compound]: 0.51. Consider `Cc1cn(-c2ccncc2)c(-c2ccc(F)cc2)c1C#N` [Compound 2-2, 2-(4-fluorophenyl)-4-methyl-1-(pyridin-4-yl)-1H-pyrrole-3-carbonitrile], for which, at wild type CK1δ, the IC50 is 212 nM. In data set [2], the “relative migration (%) of cells” value is on record as “reduced” and the migrated cells result was “suppressed the migration”. On the same counts, the results for `Fc1ccc(-c2nn[nH]c2-c2ccncc2)cc1` [Compound 3-7, 4-(4-(4-fluorophenyl)-1H-1,2,3-triazol-5-yl)pyridine] are 7140 nM, “reduced” and “suppressed the migration”. As for `Cc1cc(-c2c(-c3ccc(F)cc3)nn3c2CN(C(=O)C2CCN(C)CC2)CC3)ccn1` [Compound 1-55, (2-(4-fluorophenyl)-3-(2-methylpyridin-4-yl)-6,7-dihydropyrazolo[1,5-a]pyrazin-5(4H)-yl)(1-methylpiperidin-4-yl)methanone], at wild type CK1δ, the IC50 is 496 nM. Take `CC(=O)N1CCn2nc(-c3ccc(F)cc3)c(-c3ccnc(N)c3)c2C1` [Compound 1-50, 1-(3-(2-aminopyridin-4-yl)-2-(4-fluorophenyl)-6,7-dihydropyrazolo[1,5-a]pyrazin-5(4H)-yl)ethan-1-one]: in data set [1], the Papp A→B at 2 h, 5 μM came out at 8.5 ×10⁻⁶ cm/s; the Papp B→A at 2 h, 5 μM was found to be 30.8 ×10⁻⁶ cm/s; the efflux ratio at 2 h, 5 μM was 3.6. Also, the half-inhibitory concentration (IC50) at wild type CK1δ is 355 nM. In the case of `Fc1ccc(-c2nocc2-c2ccncc2)cc1` [Compound 3-20, 3-(4-fluorophenyl)-4-(pyridin-4-yl)isoxazole], the IC50 on wild type CK1δ was found to be 3660 nM. On the same count and under the same terms, in the case of `Fc1ccc(-c2nc3cnccn3c2-c2ccncc2)cc1` [Compound 1-5, 2-(4-fluorophenyl)-3-(pyridin-4-yl)imidazo[1,2-a]pyrazine] it was 499 nM.
